Laboratory results taken from patent US11999739B2, “Antimicrobials methods of making and using the same” (BIOVERSYS AG, priority 2016, dated 2024).

What was measured:
[1] = test system: Staphylococcus aureus (S. aureus) 11540 strain; assay: Standard microdilution MIC assay, S. aureus; format: cell-based
Summary of the method: (§1)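 MICs obtained by CLSI-standard microdilution, quality-controlled with reference strains in parallel. Values reported as + or − relative to a 16 micrograms/mL cutoff.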

[2] = test system: Escherichia coli strain ATCC25922; assay: Standard microdilution MIC assay, E. coli; format: cell-based
Summary of the method: as §1

SMILES	MIC [1]	MIC [2]
C=C[C@@H](CCNC(C)=N)NCc1ccc(-n2cc3cc(-c4cc(CCC[C@@H](N)CC(N)=O)cc(Cl)c4F)[nH]c3nc2=O)cc1 [Compound 157]	≤ 16 µg/mL	≤ 16 µg/mL
C=C[C@@H](N)CCCc1cc(Cl)c(F)c(-c2cc3cn(-c4ccc([C@H](CO)NCCCNC(C)=N)cc4)c(=O)nc3[nH]2)c1 [Compound 158]	≤ 16 µg/mL	≤ 16 µg/mL
CC(=N)NCCCN[C@H](c1ccc(-n2cc3cc(-c4cc(CCC[C@H](C)N)cc(Cl)c4F)[nH]c3nc2=O)cc1)C(F)F [Compound 159]	≤ 16 µg/mL	≤ 16 µg/mL
COC[C@H](N)CCCc1cc(Cl)c(F)c(-c2cc3cn(-c4ccc([C@@H]5CCC[C@@H](CCNC(C)=N)N5)cc4)c(=O)nc3[nH]2)c1 [Compound 160]	≤ 16 µg/mL	≤ 16 µg/mL
C=C[C@H](NCCCNC(C)=N)c1ccc(-n2cc3cc(-c4cc(CCC[C@H](C)N)cc(Cl)c4F)[nH]c3nc2=O)cc1 [Compound 161]	≤ 16 µg/mL	≤ 16 µg/mL
CC(=N)NCC[C@H](CO)N[C@@H](C)c1ccc(-n2cc3cc(-c4cc(CCC[C@@H](N)CO)cc(Cl)c4F)[nH]c3nc2=O)cc1F [Compound 163]	≤ 16 µg/mL	≤ 16 µg/mL
C=C[C@@H](CCNC(C)=N)N[C@@H](C)c1ccc(-n2cc3cc(-c4cc(CCC[C@@H](N)C5CC5)cc(Cl)c4F)[nH]c3nc2=O)cc1 [Compound 164]	≤ 16 µg/mL	≤ 16 µg/mL
CC(=N)NCC[C@H](CNc1ncc[nH]1)N[C@@H](C)c1ccc(-n2cc3cc(-c4cc(CCC[C@H](C)N)cc(Cl)c4F)[nH]c3nc2=O)cc1 [Compound 165]	≤ 16 µg/mL	≤ 16 µg/mL
C=C[C@@H](N)CCCc1cc(Cl)c(F)c(-c2cc3cn(-c4ccc([C@@H]5CCC[C@@H](CCNC(C)=N)N5)c(F)c4)c(=O)nc3[nH]2)c1 [Compound 166]	≤ 16 µg/mL	≤ 16 µg/mL
CC(=N)NCC[C@@H]1CCC[C@@H](c2ccc(-n3cc4cc(-c5cc(CCC[C@@H](N)C6CC6)cc(Cl)c5F)[nH]c4nc3=O)cc2F)N1 [Compound 167]	≤ 16 µg/mL	≤ 16 µg/mL
C=C[C@@H](CCNC(C)=N)N[C@@H](C)c1ccc(-n2cc3cc(-c4cc(CCC[C@@H](N)CO)cc(Cl)c4F)[nH]c3nc2=O)cc1F [Compound 168]	≤ 16 µg/mL	≤ 16 µg/mL
CC(=N)NCC[C@@H]1CCC[C@@H](c2ccc(-n3cc4cc(-c5cc(CCCC6(N)CC6)cc(Cl)c5F)[nH]c4nc3=O)cc2F)N1 [Compound 169]	≤ 16 µg/mL	≤ 16 µg/mL
CC(=N)NCC[C@@H]1CCC[C@@H](c2ccc(-n3cc4cc(-c5cc(CCC[C@@H](N)CF)cc(Cl)c5F)[nH]c4nc3=O)cc2F)N1 [Compound 170]	≤ 16 µg/mL	≤ 16 µg/mL

Now from value to compound:

MIC [1]	MIC [2]	SMILES
≤ 16 µg/mL	≤ 16 µg/mL	C=C[C@@H](N)CCCc1cc(Cl)c(F)c(-c2cc3cn(-c4ccc([C@H](C)N[C@@H](C=C)CCNC(C)=N)cc4)c(=O)nc3[nH]2)c1 [Compound 149]
≤ 16 µg/mL	≤ 16 µg/mL	C=C[C@@H](CCNC(C)=N)N[C@@H](C)c1ccc(-n2cc3cc(-c4cc(CCC[C@@H](N)CF)cc(Cl)c4F)[nH]c3nc2=O)cc1 [Compound 150]
≤ 16 µg/mL	≤ 16 µg/mL	C=C[C@@H](CCNC(C)=N)N[C@@H](C)c1ccc(-n2cc3cc(-c4cc(CCC[C@@H](N)CO)cc(Cl)c4F)[nH]c3nc2=O)cc1 [Compound 151]
≤ 16 µg/mL	≤ 16 µg/mL	CC(=N)NCC[C@H](CO)NCc1ccc(-n2cc3cc(-c4cc(CCCC5(N)CC5)cc(Cl)c4F)[nH]c3nc2=O)cc1 [Compound 153]
≤ 16 µg/mL	≤ 16 µg/mL	CC(=N)NCC[C@@H]1CCC[C@@H](c2ccc(-n3cc4cc(-c5cc(CCC[C@@H](N)CC#N)cc(Cl)c5F)[nH]c4nc3=O)cc2)N1 [Compound 154]
≤ 16 µg/mL	≤ 16 µg/mL	C=C[C@@H](CCNC(C)=N)NCc1ccc(-n2cc3cc(-c4cc(CCC[C@@H](N)CC#N)cc(Cl)c4F)[nH]c3nc2=O)cc1 [Compound 155]
≤ 16 µg/mL	≤ 16 µg/mL	CC(=N)NCC[C@@H]1CCC[C@@H](c2ccc(-n3cc4cc(-c5cc(CCC[C@@H](N)CC(N)=O)cc(Cl)c5F)[nH]c4nc3=O)cc2)N1 [Compound 156]
